How the values were obtained:
Format in all cases: in vivo, Wistar rats
[1] = system: STZ-induced diabetic rats; experiment: Study No 1: body weight, food intake and water intake in STZ-induced diabetic rats; settings: for AVERAGE WATER INTAKE: oral
Description: (§1) In this experiment 48 Wistar rats weighing 130-150 g of either sex were divided randomly into 8 groups consisting of 6 rats each. The study drugs suspended in vehicle [0.1% w/v suspension of Tween 80 and carboxymethylcellulose (CMC) in water] were administered for orally for 21 days. Group 1 (normal vehicle control) consisted of normal rats that neither received streptozotocin nor any test drug; Group 2 served as streptozotocin induced diabetic control (Diabetes was induced in rats by single administration of streptozotocin (60 mg/kg/i.p) dissolved in 0.1 M-citrate buffer, pH 4.5). Forty-eight hours later, blood samples were collected and glucose levels were determined to confirm the development of diabetes. […] Group 3 was diabetic rats treated with dose equivalent to human therapeutic dose of sitagliptin (STG) (11 mg/kg); Group 4 was diabetic rats treated with dose equivalent to human therapeutic dose of Hydroxychloroquine (HCQ) (46 mg/kg), Group 5 was diabetic rats treated with combination of HCQ 46 mg/kg and STG11 mg/kg; […] For other biochemical parameters i.e. […] Other parameters like body weight, food intake and water intake were evaluated weekly till day 21st.

[2] = system: STZ-induced diabetic rats; experiment: Study No 2: biochemical parameters in STZ-induced diabetic rats
[3] = system: STZ-induced diabetic rats; experiment: Study No 1: biochemical parameters in STZ-induced diabetic rats; settings: after 21 days
Description: as §1

[4] = system: STZ induced diabetic rats; experiment: Study No 2: blood glucose in STZ induced diabetic rats (HCQ with vildagliptin and saxagliptin); settings: for Plasma glucose concentration: oral
Description: In this experiment 96 Wistar rats weighing 150-200 g of either sex were divided randomly into 16 groups consisting of 6 rats each. The study drugs were dissolved in water/suspended in vehicle [0.1% w/v suspension of Tween 80 and carboxymethylcellulose (CMC) in water] and administered orally for 28 days. Group 1 (normal vehicle control) consisted of normal rats that neither received Streptozotocin (STZ) nor any test drug; Group 2 served as Streptozotocin induced diabetic control [Diabetes was induced in rats by single administration of Streptozotocin (55 mg/kg/i.p.) dissolved in 0.1 M-citrate buffer, pH 4.5]. Forty-eight hours later, blood samples were collected and glucose levels were determined to confirm the development of diabetes. Only animals showing hyperglycaemia (blood glucose levels>250 mg/dl) were considered as diabetic and received vehicle orally; Group 3 was diabetic rats treated with hydroxychloroquine (HCQ) (22.5 mg/kg); Group 4 was diabetic rats treated with HCQ (45 mg/kg), Group 5 was diabetic rats treated with vildagliptin (VG) 6 mg/kg; Group 6 was diabetic rats treated with VG 12 mg/kg; Group 7 was diabetic rats treated with HCQ 22.5 mg/kg+VG 12 mg/kg and Group 8 was diabetic rats treated with combination of HCQ 45 mg/kg and VG 6 mg/kg; Group 9 was diabetic rats treated with saxagliptin (SG) 0.3 mg/kg; Group 10 was diabetic rats treated with Saxagliptin (SG) 0.6 mg/kg; Group 11 was diabetic rats treated with combination of HCQ 45 mg/kg+SG 0.3 mg/kg; Group 12 was diabetic rats treated with combination of HCQ 22.5 mg/kg+SG 0.6 mg/kg; Group 13 was diabetic rats treated with combination of HCQ 22.5 mg/kg and VG 6 mg/kg; Group 14 was diabetic rats treated with combination of HCQ 45 mg/kg and VG 12 mg/kg; Group 15 was diabetic rats treated with combination of HCQ 22.5 mg/kg+SG 0.3 mg/kg; Group 16 was diabetic rats treated with combination of HCQ 45 mg/kg+SG 0.6 mg/kg.
Blood glucose level was measured in normal and experimental rats at 0, 7th, 14th, 21st and 28th day of administration.

[5] = system: STZ-induced diabetic rats; experiment: Study No 2: body weight, water intake and food intake in STZ-induced diabetic rats; settings: for AVERAGE FOOD INTAKE / AVERAGE WATER INTAKE / Body Weight: oral
[6] = after 28 days, HCQ 22.5, VG 6, SG 0.3 mg/kg alone, HCQ+VG 22.5+6, HCQ+SG 22.5+0.3 mg/kg/day, oral
[7] = after 28 days, HCQ 45, VG 12, SG 0.6 mg/kg alone, HCQ+VG 45+12, HCQ+SG 45+0.6 mg/kg/day, oral
[8] = monotherapies, all the tested dose levels except HCQ (22.5 mg/kg), p≦0.05
[9] = subtherapeutic dose: STG 5.5, HCQ 23, STG+HCQ 5.5+23 mg/kg/day oral
[10] = therapeutic dose: STG 11, HCQ 46, STG+HCQ 11+46 mg/kg/day oral
[11] = Day 0, HCQ 22.5, VG 6, SG 0.3 mg/kg alone, HCQ+VG 22.5+6, HCQ+SG 22.5+0.3 mg/kg/day
[12] = Day 0, HCQ 45, VG 12, SG 0.6 mg/kg alone, HCQ+VG 45+12, HCQ+SG 45+0.6 mg/kg/day
[13] = Day 7, HCQ 22.5, VG 6, SG 0.3 mg/kg alone, HCQ+VG 22.5+6, HCQ+SG 22.5+0.3 mg/kg/day
[14] = Day 7, HCQ 45, VG 12, SG 0.6 mg/kg alone, HCQ+VG 45+12, HCQ+SG 45+0.6 mg/kg/day
[15] = Day 14, HCQ 22.5, VG 6, SG 0.3 mg/kg alone, HCQ+VG 22.5+6, HCQ+SG 22.5+0.3 mg/kg/day
[16] = Day 14, HCQ 45, VG 12, SG 0.6 mg/kg alone, HCQ+VG 45+12, HCQ+SG 45+0.6 mg/kg/day
[17] = Day 21, HCQ 22.5, VG 6, SG 0.3 mg/kg alone, HCQ+VG 22.5+6, HCQ+SG 22.5+0.3 mg/kg/day
[18] = Day 21, HCQ 45, VG 12, SG 0.6 mg/kg alone, HCQ+VG 45+12, HCQ+SG 45+0.6 mg/kg/day
[19] = Day 28, HCQ 22.5, VG 6, SG 0.3 mg/kg alone, HCQ+VG 22.5+6, HCQ+SG 22.5+0.3 mg/kg/day
[20] = Day 28, HCQ 45, VG 12, SG 0.6 mg/kg alone, HCQ+VG 45+12, HCQ+SG 45+0.6 mg/kg/day

CCN(CCO)CCCC(C)Nc1ccnc2cc(Cl)ccc12 (stereo not shown) [HCQ, Hydroxychloroquine]
AVERAGE WATER INTAKE ([1]; Day 1, Sub-The (subtherapeutic dose)): 31.67 mL
AVERAGE WATER INTAKE ([1]; Day 1, The (therapeutic dose)): 30.00 mL
Body Weight ([1]; Day 1, subtherapeutic dose: STG 5.5, HCQ 23, STG+HCQ 5.5+23 mg/kg oral): 133.33 ± 17.67 g
AVERAGE FOOD INTAKE ([1]; Day 1, subtherapeutic dose: STG 5.5, HCQ 23, combination 5.5+23 mg/kg oral): 12.17 g
Body Weight ([1]; Day 1, therapeutic dose: STG 11, HCQ 46, STG+HCQ 11+46 mg/kg oral): 140.33 ± 14.60 g
AVERAGE FOOD INTAKE ([1]; Day 1, therapeutic dose: STG 11, HCQ 46, combination 11+46 mg/kg oral): 11.50 g
AVERAGE WATER INTAKE ([1]; Day 7, Sub-The (subtherapeutic dose)): 32.17 mL
AVERAGE WATER INTAKE ([1]; Day 7, The (therapeutic dose)): 29.17 mL
Body Weight ([1]; Day 7, subtherapeutic dose: STG 5.5, HCQ 23, STG+HCQ 5.5+23 mg/kg oral): 133.67 ± 16.61 g
AVERAGE FOOD INTAKE ([1]; Day 7, subtherapeutic dose: STG 5.5, HCQ 23, combination 5.5+23 mg/kg oral): 11.50 g
Body Weight ([1]; Day 7, therapeutic dose: STG 11, HCQ 46, STG+HCQ 11+46 mg/kg oral): 141.17 ± 14.26 g
AVERAGE FOOD INTAKE ([1]; Day 7, therapeutic dose: STG 11, HCQ 46, combination 11+46 mg/kg oral): 10.33 g
AVERAGE WATER INTAKE ([1]; Day 14, Sub-The (subtherapeutic dose)): 32.17 mL
AVERAGE WATER INTAKE ([1]; Day 14, The (therapeutic dose)): 28.33 mL
Body Weight ([1]; Day 14, subtherapeutic dose: STG 5.5, HCQ 23, STG+HCQ 5.5+23 mg/kg oral): 135.17 ± 16.29 g
AVERAGE FOOD INTAKE ([1]; Day 14, subtherapeutic dose: STG 5.5, HCQ 23, combination 5.5+23 mg/kg oral): 11.83 g
Body Weight ([1]; Day 14, therapeutic dose: STG 11, HCQ 46, STG+HCQ 11+46 mg/kg oral): 142.67 ± 13.52 g
AVERAGE FOOD INTAKE ([1]; Day 14, therapeutic dose: STG 11, HCQ 46, combination 11+46 mg/kg oral): 8.67 g
AVERAGE WATER INTAKE ([1]; Day 21, Sub-The (subtherapeutic dose)): 31.83 mL
AVERAGE WATER INTAKE ([1]; Day 21, The (therapeutic dose)): 28.83 mL
Body Weight ([1]; Day 21, subtherapeutic dose: STG 5.5, HCQ 23, STG+HCQ 5.5+23 mg/kg oral): 137.00 ± 15.75 g
AVERAGE FOOD INTAKE ([1]; Day 21, subtherapeutic dose: STG 5.5, HCQ 23, combination 5.5+23 mg/kg oral): 11.67 g
AVERAGE FOOD INTAKE ([1]; Day 21, therapeutic dose: STG 11, HCQ 46, combination 11+46 mg/kg oral): 8.33 g
HbA1c [2, 6]: 11.28 ± 1.08 %
Total Protein [2, 6]: 6.16 ± 0.41 gm/dl
Urea [2, 6]: 24.68 ± 1.96 mg/dL
Creatinine [2, 7]: 1.75 ± 0.29 mg/dL
HbA1c [2, 7]: 11.07 ± 1.22 %
Total Protein [2, 7]: 6.35 ± 0.79 gm/dl
Urea [2, 7]: 23.37 ± 2.86 mg/dL
HbA1c levels as compared to diabetic control ([2]; all tested doses, 28 days, p≦0.05): significantly (p≦0.05) reduced
total protein level as compared to the diabetic control group ([2]; monotherapies at all doses, 28 days, p≦0.05): significant rise
creatinine levels as compared to diabetic control group [2, 8]: significant reduction
urea levels as compared to diabetic control group [2, 8]: significant reduction
Creatinine [3, 9]: 1.79
HDL-C [3, 9]: 24.99 mg/dL
HbA1c [3, 9]: 5.30
Insulin (serum) [3, 9]: 4.71
SGOT [3, 9]: 57.29
SGPT [3, 9]: 58.12
TC [3, 9]: 166.69 mg/dL
TG [3, 9]: 130.65 mg/dL
Total Protein [3, 9]: 4.03 g/dL
Urea [3, 9]: 46.38 mg/dL
Albumin [3, 10]: 2.33 g/dL
Creatinine [3, 10]: 1.72
HDL-C [3, 10]: 25.07 mg/dL
HbA1c [3, 10]: 4.91
Insulin (serum) [3, 10]: 5.97
SGOT [3, 10]: 53.77
SGPT [3, 10]: 55.94
TC [3, 10]: 158.57 mg/dL
TG [3, 10]: 124.68 mg/dL
Total Protein [3, 10]: 4.12 g/dL
Urea [3, 10]: 43.85 mg/dL
Plasma glucose concentration ([4]; Day 0, HCQ 22.5, VG 6, SG 0.3 mg/kg alone, HCQ+VG 22.5+6, HCQ+SG 22.5+0.3 mg/kg): 292.17 ± 26.12 mg/dL
Plasma glucose concentration ([4]; Day 0, HCQ 45, VG 12, SG 0.6 mg/kg alone, HCQ+VG 45+12, HCQ+SG 45+0.6 mg/kg): 305.67 ± 27.14 mg/dL
Plasma glucose concentration ([4]; Day 7, HCQ 22.5, VG 6, SG 0.3 mg/kg alone, HCQ+VG 22.5+6, HCQ+SG 22.5+0.3 mg/kg): 278 ± 22.59 mg/dL
Plasma glucose concentration ([4]; Day 7, HCQ 45, VG 12, SG 0.6 mg/kg alone, HCQ+VG 45+12, HCQ+SG 45+0.6 mg/kg): 265.5 ± 8.87 mg/dL
Plasma glucose concentration ([4]; Day 14, HCQ 22.5, VG 6, SG 0.3 mg/kg alone, HCQ+VG 22.5+6, HCQ+SG 22.5+0.3 mg/kg): 269.33 ± 11.45 mg/dL
Plasma glucose concentration ([4]; Day 14, HCQ 45, VG 12, SG 0.6 mg/kg alone, HCQ+VG 45+12, HCQ+SG 45+0.6 mg/kg): 266.5 ± 15.86 mg/dL
Plasma glucose concentration ([4]; Day 21, HCQ 22.5, VG 6, SG 0.3 mg/kg alone, HCQ+VG 22.5+6, HCQ+SG 22.5+0.3 mg/kg): 266.67 ± 24.68 mg/dL
Plasma glucose concentration ([4]; Day 21, HCQ 45, VG 12, SG 0.6 mg/kg alone, HCQ+VG 45+12, HCQ+SG 45+0.6 mg/kg): 265.83 ± 9.22 mg/dL
Plasma glucose concentration ([4]; Day 28, HCQ 22.5, VG 6, SG 0.3 mg/kg alone, HCQ+VG 22.5+6, HCQ+SG 22.5+0.3 mg/kg): 266.5 ± 11.33 mg/dL
Plasma glucose concentration ([4]; Day 28, HCQ 45, VG 12, SG 0.6 mg/kg alone, HCQ+VG 45+12, HCQ+SG 45+0.6 mg/kg): 244.5 ± 18.1 mg/dL
blood glucose levels as compared to diabetic control group ([4]; alone at therapeutic equivalent doses, day 28): significant improvement
AVERAGE FOOD INTAKE [5, 11]: 11.45 g
AVERAGE WATER INTAKE [5, 11]: 25.05 mL
Body Weight [5, 11]: 199.83 ± 17.7 g
AVERAGE FOOD INTAKE [5, 12]: 11.67 g
AVERAGE WATER INTAKE [5, 12]: 23.88 mL
Body Weight [5, 12]: 198 ± 11.03 g
AVERAGE FOOD INTAKE [5, 13]: 13.35 g
AVERAGE WATER INTAKE [5, 13]: 24.11 mL
Body Weight [5, 13]: 190.67 ± 11.41 g
AVERAGE FOOD INTAKE [5, 14]: 13.39 g
AVERAGE WATER INTAKE [5, 14]: 22.41 mL
Body Weight [5, 14]: 184.17 ± 9.99 g
AVERAGE FOOD INTAKE [5, 15]: 11.95 g
AVERAGE WATER INTAKE [5, 15]: 23.29 mL
Body Weight [5, 15]: 196.17 ± 10.93 g
AVERAGE FOOD INTAKE [5, 16]: 12.05 g
AVERAGE WATER INTAKE [5, 16]: 21.55 mL
Body Weight [5, 16]: 190.67 ± 9.56 g
AVERAGE FOOD INTAKE [5, 17]: 13.00 g
AVERAGE WATER INTAKE [5, 17]: 26.34 mL
Body Weight [5, 17]: 199.67 ± 10.52 g
AVERAGE FOOD INTAKE [5, 18]: 12.75 g
AVERAGE WATER INTAKE [5, 18]: 26.22 mL
Body Weight [5, 18]: 194.67 ± 9.52 g
AVERAGE FOOD INTAKE [5, 19]: 14.11 g
AVERAGE WATER INTAKE [5, 19]: 25.44 mL
Body Weight [5, 19]: 201.17 ± 8.7 g
AVERAGE FOOD INTAKE [5, 20]: 14.00 g
AVERAGE WATER INTAKE [5, 20]: 25.79 mL
Body Weight [5, 20]: 198.17 ± 9.15 g
body weight as compared to diabetic control group ([5]; monotherapies, p≦0.05): significant increase
